The source made the active and inactive calls. The rule behind the calls is not given here.
Tests used:
[1] = system: RAC-alpha serine/threonine-protein kinase (Homo sapiens), P31749 [M227G]; experiment: Induction of myristoylated AKT1 M227G mutant Ser473 hyperphosphorylation expressed in HEK293T cells at 2.5 uM after 30 mins pretreated with pan-PI3K inhibitor PIK90 for 10 mins before compound addition by immunoblotting; assay type: cell-based; details: HEK-293T
HEK-293T = experiment: Induction of myristoylated AKT3 M229G mutant Ser473 hyperphosphorylation expressed in HEK293T cells at 2.5 uM after 30 mins pretreated with mTOR kinase inhibitor PP242 for 10 mins before compound addition by immunoblotting; assay type: cell-based

Chain of RAC-alpha serine/threonine-protein kinase (Homo sapiens), P31749 [M227G] (P31749 whole entry M227G): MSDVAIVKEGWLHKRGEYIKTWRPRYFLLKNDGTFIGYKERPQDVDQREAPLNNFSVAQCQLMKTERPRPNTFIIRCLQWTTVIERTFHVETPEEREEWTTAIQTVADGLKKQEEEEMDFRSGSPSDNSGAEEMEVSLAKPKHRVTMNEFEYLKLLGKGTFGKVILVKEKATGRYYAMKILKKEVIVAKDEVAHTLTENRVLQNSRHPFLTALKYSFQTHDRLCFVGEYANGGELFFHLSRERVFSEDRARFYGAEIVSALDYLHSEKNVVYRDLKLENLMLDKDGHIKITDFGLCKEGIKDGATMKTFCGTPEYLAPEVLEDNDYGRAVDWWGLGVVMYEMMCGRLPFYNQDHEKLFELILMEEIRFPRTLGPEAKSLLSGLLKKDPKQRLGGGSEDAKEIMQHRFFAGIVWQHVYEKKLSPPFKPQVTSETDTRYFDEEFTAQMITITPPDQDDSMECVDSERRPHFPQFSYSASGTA

SMILES: CCCc1cc(-c2cncc(OC[C@@H](N)Cc3c[nH]c4ccccc34)c2)cc2c(C)n[nH]c12
- Activity [1]: inactive
- Activity (HEK-293T): inactive
